Where a name gives a salt, the structure may show the parent alone. Numbered stars: 1 amine (or outer) side, 2 acyl side, 3 side chain; on linkers, the order of the positions; unused ones are H or OH. Bridge positions count the residues as written; N and C are the ends. Square brackets hold non-standard residues; d marks the D form. Peptide text beside a SMILES is read from it. * marks the point of attachment. ξ: configuration not given here. Achc(trans-4) = O=C([C@H]1CC[C@H](N[*:1])CC1)[*:2]; Thr(3ξ) = CC(O)[C@H](N)C(=O)O; Dab = NCC[C@H](N)C(=O)O; Dap = NC[C@H](N)C(=O)O; X4 = NC1CCCC1C(=O)*
Key:
Format in all cases: cell-based
Acinetobacter baumannii [1] = assay: MIC, compound in combination with a second agent (broth microdilution); conditions: for MIC A. baumannii ATCC BAA-747: strain ATCC BAA-747; for MIC A. baumannii CCUG57249: strain CCUG57249; for MIC A. baumannii NCTC 13423: strain NCTC 13423
Procedure, shortened: (§1)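 Broth microdilution with inoculum from 18-24 h Mueller-Hinton agar colonies adjusted to 0.5 McFarland, up to four strains per species. Compound combined 1:1 w/w with second agent (e.g. rifampicin), mass as salt form; MIC is total drug concentration. Duplicates, lower value reported if within 2-fold; modal value for repeat tests.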

Escherichia coli [2] = assay: as above
Procedure, shortened: as §1

Klebsiella pneumoniae [3] = assay: as above; conditions: for MIC K. pneumoniae ATCC-BAA-2146: strain ATCC-BAA-2146; for MIC K. pneumoniae CCUG-59348: strain CCUG-59348
Procedure, shortened: as §1

Pseudomonas aeruginosa [4] = assay: as above; conditions: for MIC P. aeruginosa ATCC CRM-9027: strain ATCC CRM-9027; for MIC P. aeruginosa ATCC-47: strain ATCC-47
Procedure, shortened: as §1

Acinetobacter baumannii [5] = assay: MIC, sole activity (no second agent)
Procedure, shortened: (§2)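 Compound tested without a second agent in cation-adjusted MHB, up to four strains per species, inoculum at 0.5 McFarland from colonies grown 18-24 h on Mueller-Hinton agar. Run in duplicate, invalid beyond 2-fold disagreement, lower duplicate or modal repeat value given, expressed relative to Polymyxin B.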

Escherichia coli [6] = assay: MIC, sole activity (no second agent); conditions: for MIC E. coli ATCC25922: strain ATCC25922
Procedure, shortened: as §2

Klebsiella pneumoniae [7] = assay: MIC, sole activity (no second agent); conditions: for MIC K. pneumoniae ATCC-BAA2146: strain ATCC-BAA2146; for MIC K. pneumoniae CCUG-59348: strain CCUG-59348
Procedure, shortened: as §2

Pseudomonas aeruginosa [8] = assay: MIC, sole activity (no second agent)
Procedure, shortened: as §2

[9] = 1:1 (wt:wt) combination with Rifampicin, MIC = total drug concentration
[10] = 1:1 (wt:wt) combination with Rifampicin, MIC = total drug concentration, strain NCTC 13424
[11] = 1:1 combination with Ciprofloxacin (by row order), total drug concentration
[12] = 1:1 (wt:wt) combination with Rifampicin, MIC = total drug concentration, strain ATCC25922
[13] = 1:1 (wt:wt) combination with Rifampicin, MIC = total drug concentration, strain NCTC9001
[14] = 1:1 combination with Ciprofloxacin, total drug concentration
[15] = 1:1 combination with Tigecycline, total drug concentration
[16] = 1:1 combination with Vancomycin, total drug concentration
[17] = 1:1 (wt:wt) combination with Rifampicin, MIC = total drug concentration, strain ATCC 4352
[18] = 1:1 (wt:wt) combination with Rifampicin, MIC = total drug concentration, strain ATCC 27853
[19] = 1:1 (wt:wt) combination with Rifampicin, MIC = total drug concentration, strain CCUG 59626
[20] = Second Agent none (Table 7B, by row order)
[21] = in the absence of Rifampicin, strain NCTC9001
[22] = in the absence of Rifampicin, strain ATCC 4352
[23] = in the absence of Rifampicin, strain ATCC27853
[24] = in the absence of Rifampicin, strain CCUG 59626

## CC(C)C[C@@H]1NC(=O)[C@@H](Cc2ccccc2)NC(=O)[C@H](CCN)NC(=O)[C@@H](NC(=O)[C@H](CCN)NC(=O)[C@@H](NC(=O)[C@H]2CC[C@H](N)CC2)[C@@H](C)O)CCNC(=O)[C@H]([C@@H](C)O)NC(=O)[C@H](CCN)NC(=O)[C@H](CCN)NC1=O [Example 17, Trans-4-aminocyclohexane-carbonyl polymyxin B nonapeptide] (H-[Achc(trans-4)]T[Dab][Dab][Dab][dF]L[Dab][Dab]T; lactam 4-C)
Acinetobacter baumannii [1]; [9]
  MIC A. baumannii ATCC BAA-747: 0.125 micrograms/mL
  MIC A. baumannii CCUG57249: <0.06 micrograms/mL
  MIC A. baumannii NCTC 13423: ≤0.06 micrograms/mL
Acinetobacter baumannii [1]; [10]
  MIC A. baumannii NCTC 13424: <0.06 micrograms/mL
Acinetobacter baumannii [1]; [11]
  MIC A. baumannii NCTC 13424: 0.5 micrograms/mL
Escherichia coli [2]; [12]
  MIC E. coli ATCC25922: ≤0.06 micrograms/mL
Escherichia coli [2]; [13]
  MIC E. coli NCTC9001: 0.125 micrograms/mL
Escherichia coli [2]; [14]
  MIC E. coli ATCC25922: ≤0.06 micrograms/mL
  MIC E. coli CCUG 59342: 0.5 micrograms/mL
  MIC E. coli NCTC9001: ≤0.06 micrograms/mL
Escherichia coli [2]; [15]
  MIC E. coli NCTC9001: 16 micrograms/mL
Escherichia coli [2]; [16]
  MIC E. coli NCTC9001: 16 microgram/mL
Escherichia coli [2]; E. coli NCTC9001, 1:1 combination with Meropenem, total drug concentration
  MIC E. coli NCTC9001: 0.25 micrograms/mL
Klebsiella pneumoniae [3]; [17]
  MIC K. pneumoniae ATCC 4352: 0.125 micrograms/mL
Klebsiella pneumoniae [3]; [9]
  MIC K. pneumoniae ATCC-BAA-2146: 0.125 micrograms/mL
  MIC K. pneumoniae CCUG-59348: 2 micrograms/mL
Klebsiella pneumoniae [3]; 1:1 (wt:wt) combination with Rifampicin, MIC = total drug concentration, strain NCTC 13438
  MIC K. pneumoniae NCTC 13438: 0.25 micrograms/mL
Klebsiella pneumoniae [3]; [11]
  MIC K. pneumoniae ATCC 4352: ≤0.06 micrograms/mL
Klebsiella pneumoniae [3]; [14]
  MIC K. pneumoniae CCUG 59348: >32 micrograms/mL
  MIC K. pneumoniae NCTC 13442: 1 micrograms/mL
Klebsiella pneumoniae [3]; [15]
  MIC K. pneumoniae CCUG 59348: >32 micrograms/mL
  MIC K. pneumoniae NCTC 13442: 16 micrograms/mL
Klebsiella pneumoniae [3]; [16]
  MIC K. pneumoniae CCUG 59348: >32 microgram/mL
  MIC K. pneumoniae CCUG 59626: 0.25 microgram/mL
  MIC K. pneumoniae NCTC 13442: 32 microgram/mL
Klebsiella pneumoniae [3]; K. pneumoniae ATCC BAA-1706, 1:1 combination with Meropenem, total drug concentration
  MIC K. pneumoniae ATCC BAA-1706: 4 micrograms/mL
Klebsiella pneumoniae [3]; K. pneumoniae CCUG 59348, 1:1 combination with Meropenem, total drug concentration
  MIC K. pneumoniae CCUG 59348: >32 micrograms/mL
Klebsiella pneumoniae [3]; K. pneumoniae NCTC 13442, 1:1 combination with Meropenem, total drug concentration
  MIC K. pneumoniae NCTC 13442: 16 micrograms/mL
Pseudomonas aeruginosa [4]; [18]
  MIC P. aeruginosa ATCC 27853: 0.125 micrograms/mL
Pseudomonas aeruginosa [4]; [9]
  MIC P. aeruginosa ATCC CRM-9027: 0.125 micrograms/mL
  MIC P. aeruginosa ATCC-47: 0.125 micrograms/mL
Pseudomonas aeruginosa [4]; [19]
  MIC P. aeruginosa CCUG 59626: 0.125 micrograms/mL
Pseudomonas aeruginosa [4]; [11]
  MIC P. aeruginosa ATCC 27853: ≤0.06 micrograms/mL
  MIC P. aeruginosa CCUG 59626: 0.5 micrograms/mL
Pseudomonas aeruginosa [4]; [15]
  MIC P. aeruginosa CCUG 59626: 0.25 micrograms/mL
Pseudomonas aeruginosa [4]; P. aeruginosa CCUG 59626, 1:1 combination with Meropenem, total drug concentration
  MIC P. aeruginosa CCUG 59626: 0.5 micrograms/mL
Acinetobacter baumannii [5]; [20]
  MIC A. baumannii NCTC 13424: 4 micrograms/mL
Escherichia coli [6]; Second Agent none (Table 7B)
  MIC E. coli CCUG 59342: 0.25 micrograms/mL
  MIC E. coli NCTC9001: 16 micrograms/mL
Escherichia coli [6]; in the absence of Rifampicin
  MIC E. coli ATCC25922: 2 micrograms/mL
Escherichia coli [6]; [21]
  MIC E. coli NCTC9001: 16 micrograms/mL
Klebsiella pneumoniae [7]; K. pneumoniae CCUG 59348, second agent none
  MIC K. pneumoniae CCUG 59348: >32 micrograms/mL
Klebsiella pneumoniae [7]; K. pneumoniae NCTC 13442, second agent none
  MIC K. pneumoniae NCTC 13442: >32 micrograms/mL
Klebsiella pneumoniae [7]; Second Agent none (Table 7A)
  MIC K. pneumoniae CCUG 59348: >32 microgram/mL
  MIC K. pneumoniae CCUG 59626: 0.25 microgram/mL
  MIC K. pneumoniae NCTC 13442: >32 microgram/mL
Klebsiella pneumoniae [7]; Second Agent none (Table 7B)
  MIC K. pneumoniae CCUG 59348: >32 micrograms/mL
  MIC K. pneumoniae NCTC 13442: >32 micrograms/mL
Klebsiella pneumoniae [7]; [20]
  MIC K. pneumoniae ATCC 4352: 0.125 micrograms/mL
Klebsiella pneumoniae [7]; Second Agent none (Table 7C)
  MIC K. pneumoniae CCUG 59348: >32 micrograms/mL
  MIC K. pneumoniae NCTC 13442: >32 micrograms/mL
Klebsiella pneumoniae [7]; [22]
  MIC K. pneumoniae ATCC 4352: 0.125 micrograms/mL
Klebsiella pneumoniae [7]; in the absence of Rifampicin
  MIC K. pneumoniae ATCC-BAA2146: 8 micrograms/mL
  MIC K. pneumoniae CCUG-59348: >32 micrograms/mL
Klebsiella pneumoniae [7]; in the absence of Rifampicin, strain NCTC-13438
  MIC K. pneumoniae NCTC-13438: 32 micrograms/mL
Pseudomonas aeruginosa [8]; P. aeruginosa CCUG 59626, second agent none
  MIC P. aeruginosa CCUG 59626: 0.25 micrograms/mL
Pseudomonas aeruginosa [8]; [20]
  MIC P. aeruginosa ATCC 27853: 0.125 micrograms/mL
  MIC P. aeruginosa CCUG 59626: 0.25 micrograms/mL
Pseudomonas aeruginosa [8]; Second Agent none (Table 7C)
  MIC P. aeruginosa CCUG 59626: 0.25 micrograms/mL
Pseudomonas aeruginosa [8]; [23]
  MIC P. aeruginosa ATCC 27853: 0.125 micrograms/mL
Pseudomonas aeruginosa [8]; [24]
  MIC P. aeruginosa CCUG 59626: 0.25 micrograms/mL

## CC(C)C[C@@H]1NC(=O)[C@@H](Cc2ccccc2)NC(=O)[C@H](CCN)NC(=O)[C@@H](NC(=O)[C@H](CN)NC(=O)[C@@H](NC(=O)C2CCCC2N)C(C)O)CCNC(=O)[C@H](C(C)O)NC(=O)[C@H](CCN)NC(=O)[C@H](CCN)NC1=O (stereo partly drawn) [Example 43, [2-Amino-cyclopentane-carbonyl]-L-Thr-L-Dap-polymyxin B hepatapeptide, TFA salt] (X4-[Thr(3ξ)][Dap][Dab][Dab][dF]L[Dab][Dab][Thr(3ξ)]; lactam 3-C)
Acinetobacter baumannii [1]; [9]
  MIC A. baumannii ATCC BAA-747: 0.125 micrograms/mL
  MIC A. baumannii CCUG57249: ≤0.06 micrograms/mL
  MIC A. baumannii NCTC 13423: ≤0.06 micrograms/mL
Acinetobacter baumannii [1]; [10]
  MIC A. baumannii NCTC 13424: 0.125 micrograms/mL
Escherichia coli [2]; [12]
  MIC E. coli ATCC25922: 0.125 micrograms/mL
Escherichia coli [2]; [13]
  MIC E. coli NCTC9001: 0.125 micrograms/mL
Klebsiella pneumoniae [3]; [17]
  MIC K. pneumoniae ATCC 4352: 0.125 micrograms/mL
Klebsiella pneumoniae [3]; [9]
  MIC K. pneumoniae ATCC-BAA-2146: 0.25 micrograms/mL
  MIC K. pneumoniae CCUG-59348: 2 micrograms/mL
Pseudomonas aeruginosa [4]; [18]
  MIC P. aeruginosa ATCC 27853: 0.125 micrograms/mL
Pseudomonas aeruginosa [4]; [9]
  MIC P. aeruginosa ATCC CRM-9027: 0.125 micrograms/mL
  MIC P. aeruginosa ATCC-47: 0.125 micrograms/mL
Pseudomonas aeruginosa [4]; [19]
  MIC P. aeruginosa CCUG 59626: 0.125 micrograms/mL
Acinetobacter baumannii [5]; in the absence of Rifampicin, strain ATCC13424
  MIC A. baumannii ATCC13424: 0.25 micrograms/mL
Acinetobacter baumannii [5]; in the absence of Rifampicin, strain ATCCBAA-747
  MIC A. baumannii ATCCBAA-747: 0.5 micrograms/mL
Acinetobacter baumannii [5]; in the absence of Rifampicin, strain CCUG 57249
  MIC A. baumannii CCUG57249: 0.5 micrograms/mL
Acinetobacter baumannii [5]; in the absence of Rifampicin, strain NCTC13423
  MIC A. baumannii NCTC 13423: 0.125 micrograms/mL
Escherichia coli [6]; in the absence of Rifampicin
  MIC E. coli ATCC25922: 2 micrograms/mL
Escherichia coli [6]; [21]
  MIC E. coli NCTC9001: 16 micrograms/mL
Klebsiella pneumoniae [7]; [22]
  MIC K. pneumoniae ATCC 4352: 0.5 micrograms/mL
Klebsiella pneumoniae [7]; in the absence of Rifampicin
  MIC K. pneumoniae ATCC-BAA2146: 4 micrograms/mL
  MIC K. pneumoniae CCUG-59348: >32 micrograms/mL
Pseudomonas aeruginosa [8]; [23]
  MIC P. aeruginosa ATCC 27853: 0.125 micrograms/mL
Pseudomonas aeruginosa [8]; in the absence of Rifampicin, strain ATCC-47
  MIC P. aeruginosa ATCC-47: 1 micrograms/mL
Pseudomonas aeruginosa [8]; in the absence of Rifampicin, strain ATCCCRM-9027
  MIC P. aeruginosa ATCCCRM-9027: 0.125 micrograms/mL
Pseudomonas aeruginosa [8]; [24]
  MIC P. aeruginosa CCUG 59626: ≤0.06 micrograms/mL

From patent publication US10407467B2, “Polymyxin derivatives and their use in combination therapy together with different antibiotics” (priority 2013, dated 2019)
